Values joined by “and” are separate entries in the source; they are usually repeats but may differ in a detail not shown here. Equal values may be shown once. Read-outs that look alike come from different tables or passages of the source.
Tests used:
[1] = cited from earlier work
σ1 receptor [2] = conditions: cited from earlier work; for uptake in the brain: i.v., female CD1-mice
σ1 receptor [3] = conditions: cited from earlier work
σ1 receptor [4] = conditions: rhesus monkey, 1-tissue compartment model, baseline conditions, N = 1; cited from earlier work
[5] = rhesus monkey, in vivo; cited from earlier work
σ1 receptor [6] = conditions: cited from earlier work; for SUV120min p.i. as % of SUV5min p.i.: piglet brain; for SUV120min p.i. as % of SUV5min p.i. / whole-brain distribution volume VT: baseline; for VT, cerebellum / VT, colliculi / VT, cortex / VT, hippocampus / VT, midbrain / VT, striatum / VT, thalamus: piglet, Logan plot, baseline conditions, N = 3; for whole-brain distribution volume VT / decrease in VT upon SA 4503 blockade of σ1 receptors / standardized uptake value (SUV) in brain: piglets; for whole-brain distribution volume VT: two-tissue compartment modeling, metabolite-corrected plasma input; for decrease in VT upon SA 4503 blockade of σ1 receptors: whole brain, Logan plot analysis; for standardized uptake value (SUV) in brain: within 3 min after injection
σ1 receptor [7] = conditions: cited from earlier work; for VT: healthy volunteers
σ1 receptor [8] = conditions: in Figure 5; cited from earlier work
σ2 receptor [9] = conditions: in Figure 5; cited from earlier work
[10] = pH 7.2; cited from earlier work
human serum albumin = human serum albumin (Homo sapiens, UniProt P02768); assay: plasma protein binding by HPLC on human serum albumin stationary phase; assay type: in vitro ADME; conditions: stationary phase coated with human serum albumin
Sequence of human serum albumin (P02768 25-609): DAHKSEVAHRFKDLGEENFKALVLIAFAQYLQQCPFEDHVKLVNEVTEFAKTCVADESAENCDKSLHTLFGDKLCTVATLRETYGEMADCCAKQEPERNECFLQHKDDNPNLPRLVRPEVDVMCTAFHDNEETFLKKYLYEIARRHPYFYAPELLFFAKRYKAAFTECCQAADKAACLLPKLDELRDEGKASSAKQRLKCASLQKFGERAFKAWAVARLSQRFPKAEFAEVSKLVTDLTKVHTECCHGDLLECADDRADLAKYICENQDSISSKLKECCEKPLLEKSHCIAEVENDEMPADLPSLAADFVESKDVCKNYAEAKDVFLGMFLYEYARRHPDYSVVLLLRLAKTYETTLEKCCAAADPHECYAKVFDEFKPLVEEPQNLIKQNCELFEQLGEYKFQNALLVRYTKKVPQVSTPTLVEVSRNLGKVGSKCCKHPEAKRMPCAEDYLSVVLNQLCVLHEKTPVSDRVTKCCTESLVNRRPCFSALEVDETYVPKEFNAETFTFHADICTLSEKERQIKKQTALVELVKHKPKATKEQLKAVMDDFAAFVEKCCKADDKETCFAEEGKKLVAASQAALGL
Method: Plasma protein binding was recorded by HPLC analysis using a stationary phase coated with human serum albumin. The resulting retention times correlate with binding to human serum albumin [42].

σ1 receptor [11] = assay: σ1 receptor affinity (receptor binding); conditions: ratio Ki(σ2)/Ki(σ1)
[12] = logD7.4 by micro-shake flask method; assay type: physicochemical; conditions: n-octanol/MOPS buffer pH 7.4, determined by LC-MS
Method: The lipophilicity of the homologous fluoroalkyl derivatives 1–4 was determined by the micro-shake flask method. After the distribution of the compounds between an n-octanol layer and MOPS buffer (pH 7.4), the amount of the compound in the buffer layer was determined by mass spectrometry. The recorded logD7.4 values were compared with the logD7.2 values determined by the distribution of the analogous ^18F-labeled compounds [^18F]1–[^18F]4 between n-octanol and phosphate-buffered saline, pH 7.2. The logD7.2 values were calculated from the distribution of radioactivity in both layers.

σ2 receptor [13] = biological target: σ2 receptor; set-up: method as in PMID 22136765, PMID 21126878, PMID 21072511, PMID 19791807, PMID 21618432; conditions: cited from earlier work
[14] = metabolic stability with mouse liver microsomes and NADPH; conditions: LC-MS
Method: After an incubation period of 90 min, the amount of remaining test compound was determined by LC-MS [42, 43, 44].

dopamine D2/D3 receptors = conditions: healthy volunteers and HD patients; cited from earlier work
σ1 receptor [15] = conditions: healthy volunteers and HD patients, therapeutic doses; cited from earlier work
[16] = pure fluspidine enantiomers, read-out: Ki, σ1 receptor affinity
[17] = racemic spirocyclic piperidines, read-out: Ki(σ1)

Compound: FCCC1OC2(CCN(Cc3ccccc3)CC2)c2ccccc21 (racemic) [rac-[^18F]2]
- activity in brain due to unchanged radioligand ([1]; brains of CD-1 mice, 60 min after intravenous administration): 98%
- proportion of unchanged PET tracer in plasma ([1]; mouse, in vivo, iv): 75%
- uptake in the brain (σ1 receptor [2]; 5 min p.i.): 3.88 % ID/g
- uptake in the brain (σ1 receptor [2]; 30 min p.i.): 4.71 % ID/g
- uptake in the brain (σ1 receptor [2]; 120 min p.i.): 2.82 % ID/g
- Ratio of activity concentration, cerebellum vs. olfactory bulb (σ1 receptor [2]; mouse, 45 min p.i., N = 1): 1.75
- Ratio of activity concentration, cortex vs. olfactory bulb (σ1 receptor [2]; mouse, 45 min p.i., N = 1): 1.45
- Ratio of activity concentration, facial nucleus vs. olfactory bulb (σ1 receptor [2]; mouse, 45 min p.i., N = 1): 4.69
- Ratio of activity concentration, hippocampus vs. olfactory bulb (σ1 receptor [2]; mouse, 45 min p.i., N = 1): 1.21
- Ratio of activity concentration, striatum vs. olfactory bulb (σ1 receptor [2]; mouse, 45 min p.i., N = 1): 1.11
- Ratio of activity concentration, superficial grey layer of superior colliculus vs. olfactory bulb (σ1 receptor [2]; mouse, 45 min p.i., N = 1): 1.57
- Ratio of activity concentration, thalamus vs. olfactory bulb (σ1 receptor [2]; mouse, 45 min p.i., N = 1): 1.24

Compound: FCC[C@H]1OC2(CCN(Cc3ccccc3)CC2)c2ccccc21 [(R)-2]
- Ki (σ1 receptor [3]; [16]): 0.57 nM

Compound: [18F]CC[C@H]1OC2(CCN(Cc3ccccc3)CC2)c2ccccc21 [(R)-[^18F]2]
- VT, amygdala (σ1 receptor [4]): 153 mL/g
- VT, caudate (σ1 receptor [4]): 181 mL/g
- VT, cerebellum (σ1 receptor [4]): 175 mL/g
- VT, cortex (σ1 receptor [4]): 174 to 291 mL/g
- VT, hippocampus (σ1 receptor [4]): 193 mL/g
- VT, putamen (σ1 receptor [4]): 199 mL/g
- VT, thalamus (σ1 receptor [4]): 128 mL/g
- fraction of unchanged PET tracer in plasma [5]: > 30%
- SUV120min p.i. as % of SUV5min p.i. (σ1 receptor [6]): ~ 80%
- VT, cerebellum (σ1 receptor [6]): 140 mL/g
- VT, colliculi (σ1 receptor [6]): 123 mL/g
- VT, cortex (σ1 receptor [6]): 67.8 to 98.4 mL/g
- VT, hippocampus (σ1 receptor [6]): 95.2 mL/g
- VT, midbrain (σ1 receptor [6]): 132 mL/g
- VT, striatum (σ1 receptor [6]): 100 mL/g
- VT, thalamus (σ1 receptor [6]): 106 mL/g
- whole-brain distribution volume VT (σ1 receptor [6]): 133 mL/g
- decrease in VT upon SA 4503 blockade of σ1 receptors (σ1 receptor [6]): −89%
- standardized uptake value (SUV) in brain (σ1 receptor [6]): about 2

Compound: FCC[C@@H]1OC2(CCN(Cc3ccccc3)CC2)c2ccccc21 [(S)-2]
- Ki (σ1 receptor [3]; [16]): 2.3 nM

Compound: [18F]CC[C@@H]1OC2(CCN(Cc3ccccc3)CC2)c2ccccc21 [(S)-[^18F]2]
- VT (σ1 receptor [7]; frontal cortex): 21 mL/g
- VT (σ1 receptor [7]; striatum): 19 mL/g
- free fraction in blood plasma fp (σ1 receptor [7]; human): 0.023
- VT, amygdala (σ1 receptor [4]): 14.6 mL/g
- VT, caudate (σ1 receptor [4]): 13.5 mL/g
- VT, cerebellum (σ1 receptor [4]): 13.6 mL/g
- VT, cortex (σ1 receptor [4]): 14.6 to 19.6 mL/g
- VT, hippocampus (σ1 receptor [4]): 16.4 mL/g
- VT, putamen (σ1 receptor [4]): 14.9 mL/g
- VT, thalamus (σ1 receptor [4]): 12.2 mL/g
- fraction of unchanged PET tracer in plasma [5]: > 30%
- SUV120min p.i. as % of SUV5min p.i. (σ1 receptor [6]): ~ 50%
- VT, cerebellum (σ1 receptor [6]): 14.8 mL/g
- VT, colliculi (σ1 receptor [6]): 15.2 mL/g
- VT, cortex (σ1 receptor [6]): 9.8 to 13.1 mL/g
- VT, hippocampus (σ1 receptor [6]): 13.5 mL/g
- VT, midbrain (σ1 receptor [6]): 15.4 mL/g
- VT, striatum (σ1 receptor [6]): 13.5 mL/g
- VT, thalamus (σ1 receptor [6]): 14.1 mL/g
- whole-brain distribution volume VT (σ1 receptor [6]): 13 mL/g
- decrease in VT upon SA 4503 blockade of σ1 receptors (σ1 receptor [6]): −55%
- standardized uptake value (SUV) in brain (σ1 receptor [6]): about 2

Compound: COc1cc(CCN2CCN(CCCc3ccccc3)CC2)ccc1OCC[18F] [[^18F]FE-SA 4503]
- IC50 (σ1 receptor [8]): 6.5 nM
- IC50 (σ2 receptor [9]): 2.1 nM

Compound: COc1cc(CCN2CCN(CCCc3ccccc3)CC2)ccc1OC[18F] [[^18F]FM-SA 4503]
- Ki (σ1 receptor [8]): 6.4 nM
- Ki (σ2 receptor [9]): 250 nM

Compound: FCC1OC2(CCN(Cc3ccccc3)CC2)c2ccccc21 (stereo not drawn) [compound 1]
- logD7.2 PET Tracer [10]: 2.39 ± 0.04
- Ki (σ1 receptor [3]; [17]): 0.74 nM
- fraction unbound (human serum albumin): 0.16
- σ1/σ2 Selectivity (σ1 receptor [11]): 743
- logD [12]: 2.8 ± 0.04
- Ki (σ2 receptor [13]): 0.55 µM
- In Vitro Metabolism—Intact Compd. after 90 min [14]: 53% and 53 ± 3.9%

Compound: FCCC1OC2(CCN(Cc3ccccc3)CC2)c2ccccc21 (stereo not drawn) [compound 2]
- logD7.2 PET Tracer [10]: 2.57 ± 0.32
- Ki (σ1 receptor [3]; [17]): 0.59 nM
- fraction unbound (human serum albumin): 0.12
- σ1/σ2 Selectivity (σ1 receptor [11]): 1331
- logD [12]: 3.33 ± 0.07
- Ki (σ2 receptor [13]): 0.785 µM
- In Vitro Metabolism—Intact Compd. after 90 min [14]: 34% and 34 ± 8.8%

Compound: FCCCC1OC2(CCN(Cc3ccccc3)CC2)c2ccccc21 (stereo not drawn) [compound 3]
- logD7.2 PET Tracer [10]: 2.78 ± 0.06
- Ki (σ1 receptor [3]; [17]): 1.4 nM
- fraction unbound (human serum albumin): 0.09
- σ1/σ2 Selectivity (σ1 receptor [11]): 598
- logD [12]: 3.6 ± 0.12
- Ki (σ2 receptor [13]): 0.837 µM
- In Vitro Metabolism—Intact Compd. after 90 min [14]: 33% and 33 ± 7.9%

Compound: FCCCCC1OC2(CCN(Cc3ccccc3)CC2)c2ccccc21 (stereo not drawn) [compound 4]
- logD7.2 PET Tracer [10]: 3.11 ± 0.14
- Ki (σ1 receptor [3]; [17]): 1.2 nM
- fraction unbound (human serum albumin): 0.05
- σ1/σ2 Selectivity (σ1 receptor [11]): 408
- logD [12]: 3.71 ± 0.14
- Ki (σ2 receptor [13]): 0.489 µM
- In Vitro Metabolism—Intact Compd. after 90 min [14]: 28% and 28 ± 4.5%

Compound: FCCC1OC2(CCN(Cc3ccc(F)cc3)CC2)c2ccccc21 (stereo not drawn) [compound 5]
- Ki (σ1 receptor [3]; [17]): 0.57 nM
- σ1/σ2 Selectivity (σ1 receptor [11]): 844
- Ki (σ2 receptor [13]): 0.481 µM

Compound: FCCC1OC2(CCN(CC3CCCCC3)CC2)c2ccccc21 (stereo not drawn) [compound 6]
- Ki (σ1 receptor [3]; [17]): 0.71 nM
- σ1/σ2 Selectivity (σ1 receptor [11]): 80
- Ki (σ2 receptor [13]): 0.057 µM

Compound: CC(c1ccccc1)N1CCC2(CC1)OC(CCF)c1ccccc12 (stereo not drawn) [compound 7]
- Ki (σ1 receptor [3]; [17]): 1 nM
- σ1/σ2 Selectivity (σ1 receptor [11]): >1000
- Ki (σ2 receptor [13]; cells printed in µM): > 1 µM

Compound: CCCCN1CCC2(CC1)OC(CCF)c1ccccc12 (stereo not drawn) [compound 8]
- Ki (σ1 receptor [3]; [17]): 3.9 nM
- σ1/σ2 Selectivity (σ1 receptor [11]): 225
- Ki (σ2 receptor [13]): 0.878 µM

Compound: CCCCCCCCN1CCC2(CC1)OC(CCF)c1ccccc12 (stereo not drawn) [compound 9]
- Ki (σ1 receptor [3]; [17]): 15 nM
- σ1/σ2 Selectivity (σ1 receptor [11]): 7.9
- Ki (σ2 receptor [13]): 0.118 µM

Compound: CC(C)=CCN1CCC2(CC1)OC(CCF)c1ccccc12 (stereo not drawn) [compound 10]
- Ki (σ1 receptor [3]; [17]): 1.5 nM
- Ki (σ2 receptor [13]; cells printed in µM): > 1 µM

Compound: COc1ccc(CCN2CCN(CCCc3ccccc3)CC2)cc1OC [cutamesine, 1-[2-(3,4-dimethoxyphenyl)ethyl]-4-(3-phenylpropyl)piperazine]
- IC50 (σ1 receptor [8]): 4.6 nM
- IC50 (σ2 receptor [9]): 63.1 nM

Compound: CCCN1CCC(c2cccc(S(C)(=O)=O)c2)CC1 [pridopidine, 4-[3-(methylsulfonyl)phenyl]-1-propylpiperidine]
- occupancy of dopamine D2/D3 receptors (dopamine D2/D3 receptors): minimal occupancy
- binding to the σ1 receptor in the brain (occupancy study) (σ1 receptor [15]): selective binding

— PMC10892410, “[^18F]Fluspidine—A PET Tracer for Imaging of σ1 Receptors in the Central Nervous System” (Pharmaceuticals, 2024)
